Measurements: patent US8058008B2, “Method for extracting quantitative information relating to an influence on a cellular response” (Fisher Bioimage APS, priority 1997, dated 2011)

Columns and labels:
[1] = tested on: actin-binding-domain-EGFP fusion; assay: Actin-binding-domain-EGFP redistribution in CHO cells expressing the human insulin receptor; assay type: cell-based; conditions: insulin stimulation
Excerpt: The actin binding domain of the human alpha-actinin gene (GenBank Accession number: X15804) was amplified using PCR according to standard protocols with primers ABD-top (SEQ ID NO:90) and ABD-bottom/−stop (SEQ ID NO:91). The PCR product was digested with restriction enzymes Hind3 and BamH1, and ligated into pEGFP-N 1 (Clontech, Palo Alto; GenBank Accession number U55762) digested with Hind3 and BamH1. This produced an actin-binding-domain-EGFP fusion (SEQ ID NO:128 &129) under the control of a CMV promoter.
The resulting plasmid was transfected into CHO cells expressing the human insulin receptor.

[2] = target: T1, PKA-F64L-S65T-GFP probe / human a2a adrenoceptor (hARa2a) (Homo sapiens, UniProt P08913); assay: PKAc-F64L-S65T-GFP redistribution in transiently transfected CHO cells expressing hARa2a; assay type: cell-based, murine; conditions: 10 mM norepinephrine after 10 mM forskolin for 7.5 minutes, forskolin still present
T1 construct: expressed in transfected cells; host or cells: CHO, transient co-transfection
T1 sequence (P08913 1-465): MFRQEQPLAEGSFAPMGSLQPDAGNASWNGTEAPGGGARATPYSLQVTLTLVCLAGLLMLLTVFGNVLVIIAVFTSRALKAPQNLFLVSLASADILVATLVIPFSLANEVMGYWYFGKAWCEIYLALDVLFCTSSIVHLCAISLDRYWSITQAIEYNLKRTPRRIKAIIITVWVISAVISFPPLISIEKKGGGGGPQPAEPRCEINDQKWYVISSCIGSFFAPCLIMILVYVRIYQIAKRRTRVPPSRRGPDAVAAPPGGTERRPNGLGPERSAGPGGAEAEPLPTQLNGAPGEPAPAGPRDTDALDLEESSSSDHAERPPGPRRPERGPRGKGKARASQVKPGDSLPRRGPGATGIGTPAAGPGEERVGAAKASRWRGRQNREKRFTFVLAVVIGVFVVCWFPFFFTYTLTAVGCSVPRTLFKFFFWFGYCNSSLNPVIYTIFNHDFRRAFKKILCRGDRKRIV
Description: Transiently transfected CHO cells expressing hARa2a and the PKA-F64L-S65T-GFP probe were treated with 10 mM forskolin for 7.5 minutes, then, in the continued presence of forskolin, exposed to 10 mM norepinephrine to stimulate the exogenous adrenoreceptors, which couple to a Gi protein, which inhibit adenylate cyclase.

EGFP-Erk1 fusion = assay: EGFP-Erk1 nuclear translocation in HEK293 cells; assay type: cell-based, human
Excerpt: b) The human Erk1 gene (GenBank Accession number: X60188) was amplified using PCR according to standard protocols with primers Erk1-top (SEQ ID NO:9) and Erk1-bottom/+stop (SEQ ID NO:10). The PCR product was digested with restriction enzymes EcoR1 and BamH1, and ligated into pEGFP-C1 (Clontech, Palo Alto; GenBank Accession number U55763) digested with EcoR1 and BamH1. This produces an EGFP-Erk1 fusion (SEQ ID NO:38 &39) under the control of a CMV promoter.
The plasmid containing the EGFP-Erk1 fusion was transfected into HEK293 cells employing the FUGENE transfection reagent (Boehringer Mannheim). Prior to experiments the cells were grown to 80%-90% confluency 8 well chambers in DMEM with 10% FCS. […] Just before starting the experiment, the HAM F-12 was replaced with Hepes buffer following a wash with Hepes buffer. This removes the PD98059 inhibitor; if blocking of MEK1 is still wanted (e.g. in control experiments), the inhibitor is included in the Hepes buffer.
The experimental setup of the microscope was as described in example 1.
60 images were collected with 10 seconds between each, and with the test compound added after image number 10.
Redistribution of GFP fluorescence is expressed in this example as the change in the ratio value between areas in nuclear versus cytoplasmic compartments of the cell. Each time profile is the average of nuclear to cytoplasmic ratios from six cells in each treatment.

[3] = tested on: PKAc-F64L-S65T-GFP fusion; assay: PKAc-F64L-S65T-GFP redistribution in stably transfected CHO cells (fluorescence microscopy, image analysis); assay type: cell-based, murine
Description: The catalytic subunit of the murine cAMP dependent protein kinase (PKAc) was fused C-terminally to a F64L-S65T derivative of GFP. The resulting fusion (PKAc-F64L-S65T-GFP) was used for monitoring in vivo the translocation and thereby the activation of PKA.
Untransfected CHO cells were used as the control. […] Expression of GR was maintained with 500 mg G418/ml (Neo marker) and PKAc-F64L-S65T-GFP was maintained with 500 mg Zeocin/ml (Sh ble marker). CHO cells were also simultaneously co-transfected with vectors containing the PKAc-F64L-S65T-GFP fusion and the human a2a adrenoceptor (hARa2a).
For fluorescence microscopy, cells were allowed to adhere to Lab-Tek chambered cover-glasses (Nalge Nunc Int., Naperville, Ill., USA) for at least 24 hours and cultured to about 80% confluence. Prior to experiments, the cells were cultured over night without selection pressure in HAM F-12 medium with glutamax (Life Technologies), 100 mg penicillin-streptomycin mixture ml^−1 and 0.3% FBS. This medium has low autofluorescence enabling fluorescence microscopy of cells straight from the incubator.
The cells were illuminated with a 100 W HBO arc lamp.
Method 1: Stepwise Procedure for Quantitation of Translocation of PKA:
3. The image histogram, i.e., the frequency of occurrence of each intensity value in the image, was calculated.
4. A smoothed, second derivative of the histogram was calculated and the second zero is determined. […]
5. The value determined in step 4 was subtracted from the image. […]
6. The variance (square of the standard deviation) of the remaining pixel values was determined. […]
Method 2: Alternative Method for Quantitation of PKA Redistribution:
1. […] The area of each image occupied by the aggregates is calculated by counting pixels in the segmented areas. […] A value of zero (0) indicates no redistribution of fluorescence from the starting condition. […]
As described above, the time it took for a response to come to completion was dependent on the forskolin dose (FIG. 5) In addition the degree of responses was also dose dependent. […] The amount of cAMP produced was measured in an SPA assay. […]

cAMP = assay: Scintillation proximity assay (SPA) of cAMP produced in CHO cells; assay type: cell-based, Chinese hamster; conditions: 8 concentrations 0.01-50 mM (n=4), 100 mM IBMX, 10 min
Description: 7. Scintillation proximity assay (SPA) for independent quantitation of cAMP:
Cells were cultured in HAM F-12 medium as described above, but in 96-well plates. The medium was exchanged with Ca^2+-HEPES buffer including 100 mM IBMX and the cells were stimulated with different concentrations of forskolin for 10 min. Reactions were stopped with addition of NaOH to 0.14 M and the amount of cAMP produced was measured with the cAMP-SPA kit, RPA538 (Amersham) as described by the manufacturer.
As described above, the time it took for a response to come to completion was dependent on the forskolin dose (FIG. 5) In addition the degree of responses was also dose dependent. To test the PKA-F64L-S65T-GFP fusion protein translocation in a semi high through-put system, CHO cells stably transfected with the PKA-F64L-S65T-GFP fusion was stimulated with buffer and 5 increasing doses of forskolin (n=8). […] In parallel, cells were stimulated with buffer and 8 increasing concentrations of forskolin (n=4) in the range 0.01-50 mM. The amount of cAMP produced was measured in an SPA assay. A steep increase was observed between 1 and 5 mM forskolin coincident with the steepest part of the curve for fusion protein translocation (also FIG. 6)

Compound: insulin
- redistribution of actin binding domain-EGFP probe [1]: redistributed into morphologically distinct membrane-associated structures

Compound: NC[C@H](O)c1ccc(O)c(O)c1 [norepinephrine]
- localisation of fluorescence, indicative of a decrease in [cAMP]i [2]: reappearance of fluorescence in the cytoplasmic aggregates

Compound: COc1cccc(-c2cc(=O)c3ccccc3o2)c1N [PD98059]
- effect on nuclear EGFP-Erk1 (EGFP-Erk1 fusion; 100 micromolar PD98059, 30-60 minutes in plain HAM F-12 without FCS): effectively empties the nucleus of EGFP-Erk1

Compound: CC(C)Cn1c(=O)n(C)c(=O)c2[nH]cnc21 [IBMX]
- temporal profile of fusion protein redistribution compared with forskolin ([3]; 1 mM dbcAMP, 100 mM IBMX, no adenylate cyclase stimulation): slow response
- return of fusion protein to prestimulatory localization after removal of forskolin ([3]; 10 mM forskolin and 100 mM IBMX, then washed 5-8 times with buffer containing 100 mM IBMX): did not return to its prestimulatory localization

Compound: EGF: growth factor added to activate the MAPK pathway and Erk1 nuclear translocation (NSDSECPLSHDGYCLHDGVCMYIEALDKYACNCVVGYIGERCQYRDLKWWELR; UniProt P01133 971-1023, looked up)
- redistribution of EGFP-Erk1 (EGFP-Erk1 fusion; EGF 1-100 nM, within minutes): redistribution of EGFP-Erk1 from the cytoplasm into the nucleus
- relationship between concentration and nuclear translocation of EGFP-Erk1 (EGFP-Erk1 fusion; change in nuclear to cytoplasmic ratio, six cells per treatment): dose-dependent relationship

Compound: CCCC(=O)Nc1ncnc2c1ncn2[C@@H]1O[C@@H]2COP(=O)(O)O[C@H]2[C@H]1OC(=O)CCC [dbcAMP]
- translocation of the fusion protein ([3]; 1, 10 and 50 mM forskolin, dbcAMP at 1 mM): dramatic translocation of the fusion protein from a punctate distribution to an even distribution throughout the cytoplasm

Compound: C=C[C@@]1(C)CC(=O)[C@]2(O)[C@@]3(C)[C@@H](O)CCC(C)(C)[C@@H]3[C@H](O)[C@H](OC(C)=O)[C@@]2(C)O1 [forskolin, Forskolin]
- forskolin concentration range of steep increase in amount of cAMP produced (cAMP): 1 to 5 mM
